ChEMBL document CHEMBL5357023, “Synthesis and Evaluation of Benzylamine Inhibitors of Neuropathogenic Naegleria fowleri "Brain-Eating" Amoeba” (ACS Med Chem Lett, 2024)
Values after ≈ are worked out from the molar mass of the structure shown.

Key:
[1] = system: Naegleria fowleri; experiment: Anti-ameobic activity against Naegleria fowleri NF69 ATCC 30215 incubated for 48 hrs; type: functional, organism-based; details: NF69 ATCC 30215, 48 h
[2] = system: SH-SY5Y; experiment: Cytotoxicity against human SH-SY5Y cells assessed as reduction in cell viability at 20 uM incubated for 72 hrs by celltiter glow assay; type: functional
[3] = system: Naegleria fowleri; experiment: Anti-ameobic activity against Naegleria fowleri NF69 ATCC 30215 assessed as growth inhibition incubated for 48 hrs relative to control; type: functional, organism-based; details: for growth inhibition (GI): time 48 hrs
[4] = system: SH-SY5Y; experiment: Cytotoxicity against human SH-SY5Y cells assessed as reduction in cell viability at 1 uM incubated for 72 hrs by celltiter glow assay; type: functional
[5] = Lipophilicity, log D of the compound in octanol/phosphate buffer at pH 7.4 incubated for 2 mins by LC-MS analysis; type: physicochemical
[6] = Microsomal stability in CD-1 mouse liver microsome assessed as half life preincubated for 60 mins followed by NADPH addition and measured after 60 mins by HPLC analysis; type: ADME; details: liver microsomes, time 120 min
[7] = Plasma protein binding in CD-1 mouse measured for 4 hrs by LC-MS/MS analysis; type: ADME, cell-free; details: read-out: PPB (converted)
[8] = Kinetic solubility of compound in phosphate buffer at pH 7.4 incubated for 24 hrs by HPLC analysis; type: physicochemical; details: read-out: Kinetic_solubility
[9] = Permeability of compound incubated for 18 hrs by PAMPA assay; type: ADME; details: read-out: permeability
[10] = Stability in CD-1 mouse plasma assessed as parent compound remaining incubated for 20 mins by LC-MS analysis; type: ADME, cell-free; details: read-out: Stability
[11] = system: SH-SY5Y; experiment: Cytotoxicity against human SH-SY5Y cells assessed as reduction in cell viability incubated for 72 hrs by celltiter glow assay; type: functional

CC(C)(C)c1ncc(CNc2cc(Cl)cnc2C(=O)O)s1
EC50 [1]: > 10 µM
Cell viability remaining [2]: 67%
growth inhibition (GI) [3]: 0%
Activity [4]: 95%

CC(C)(C)c1ccc(CNc2cc(-c3ccccc3)cnc2C(=O)O)cc1
EC50 [1]: 5 µM
Cell viability remaining [2]: 81%
growth inhibition (GI) [3]: 99.3%
Activity [4]: 100%

CC(C)(C)c1ccc(CNc2cc(Br)cnc2C(=O)O)cc1
EC50 [1]: 7.2 µM
Cell viability remaining [2]: 85%
growth inhibition (GI) [3]: 84.4%
Activity [4]: 99%

CC(C)(C)c1ccc(CNc2cc(F)cnc2C(=O)O)cc1
EC50 [1]: 5 µM
Cell viability remaining [2]: 73%
growth inhibition (GI) [3]: 99.5%
Activity [4]: 91%

CC(C)(C)c1ccc(CNc2scnc2C(=O)O)cc1
EC50 [1]: > 10 µM

COc1cnc(C(=O)O)c(NCc2ccc(C(C)(C)C)cc2)c1
logD at 2 min [5]: 2.3
EC50 [1]: 0.92 µM
Cell viability remaining [2]: 100%
half-life [6]: 72 min
fraction unbound at 4 h [7]: 0.003
solubility kinetic at 24 h [8]: 199 µM (≈ 62.6 µg/mL)
Papp at 18 h [9]: 9.69 ×10⁻⁶ cm/s
remaining at 20 min [10]: 92%
growth inhibition (GI) [3]: 100.3%
Activity [4]: 98%
CC50 [11]: > 20 µM

O=C(O)c1ncc(Cl)cc1NCc1ccc(F)cc1
EC50 [1]: > 10 µM
Cell viability remaining [2]: 100%
growth inhibition (GI) [3]: 22.8%
Activity [4]: 93%

COc1ccc(CNc2cc(Cl)cnc2C(=O)O)cc1
EC50 [1]: > 10 µM
Cell viability remaining [2]: 95%
growth inhibition (GI) [3]: 6.6%
Activity [4]: 98%

COc1cnc(C(=O)O)c(NCCc2ccc(C(C)(C)C)cc2)c1
EC50 [1]: 1.1 µM
Cell viability remaining [2]: 57%
growth inhibition (GI) [3]: 100.4%
Activity [4]: 87%

CC(C)(C)c1ccc(CCc2cc(Cl)cnc2C(=O)O)cc1
EC50 [1]: > 10 µM
Cell viability remaining [2]: 85%
growth inhibition (GI) [3]: 0%
Activity [4]: 100%

CC(C)(C)NCC(O)COc1cccc2c1CC(O)C(O)C2 (stereo unspecified) [NADOLOL]
Papp at 18 h [9]: < 0.01 ×10⁻⁶ cm/s

CC(C)(C)c1ccc(CCNc2cc(Cl)cnc2C(=O)O)cc1
EC50 [1]: 3.3 µM
Cell viability remaining [2]: 100%
growth inhibition (GI) [3]: 99.8%
Activity [4]: 95%

CC(C)(C)c1ccc(CNc2cc(Cl)cnc2C(=O)O)cc1
logD at 2 min [5]: 2.3
EC50 [1]: 6 µM
Cell viability remaining [2]: 53%
half-life [6]: 38 min
fraction unbound at 4 h [7]: 0.009
solubility kinetic at 24 h [8]: 84 µM (≈ 26.8 µg/mL)
Papp at 18 h [9]: 8.5 ×10⁻⁶ cm/s
remaining at 20 min [10]: 93%
growth inhibition (GI) [3]: 98.8%
Activity [4]: 85%
CC50 [11]: > 20 µM

CC(C)(C)c1ccc(CNc2cc(Cl)c(Cl)nc2C(=O)O)cc1
EC50 [1]: > 10 µM
Cell viability remaining [2]: 100%
growth inhibition (GI) [3]: 12.3%
Activity [4]: 100%

CC(C)(C)c1ccc(CNc2cccnc2C(=O)O)cc1
EC50 [1]: 3 µM
Cell viability remaining [2]: 89%
growth inhibition (GI) [3]: 99.2%
Activity [4]: 100%

O=C(O)c1ncc(Cl)cc1NCc1ccc(C(F)(F)F)cc1
EC50 [1]: > 10 µM
Cell viability remaining [2]: 66%
growth inhibition (GI) [3]: 29.5%
Activity [4]: 78%

Cc1cnc(C(=O)O)c(NCc2ccc(C(C)(C)C)cc2)c1
logD at 2 min [5]: 2.4
EC50 [1]: 1.4 µM
Cell viability remaining [2]: 98%
half-life [6]: 49 min
solubility kinetic at 24 h [8]: 208 µM (≈ 62.1 µg/mL)
growth inhibition (GI) [3]: 100.4%
Activity [4]: 96%
CC50 [11]: > 20 µM

CC(C)(C)c1ccc(CNc2cncnc2C(=O)O)cc1
EC50 [1]: > 10 µM

O=C(O)c1ncc(Cl)cc1NCc1ccccc1
EC50 [1]: > 10 µM
Cell viability remaining [2]: 95%
growth inhibition (GI) [3]: 0%
Activity [4]: 95%

CC(Nc1cc(Cl)cnc1C(=O)O)c1ccc(C(C)(C)C)cc1 (stereo unspecified)
EC50 [1]: > 10 µM
Cell viability remaining [2]: 100%
growth inhibition (GI) [3]: 38.2%
Activity [4]: 98%

CC(C)(C)c1ccc(S(=O)(=O)Nc2cc(Cl)cnc2C(=O)O)cc1
EC50 [1]: > 10 µM
Cell viability remaining [2]: 100%
growth inhibition (GI) [3]: 16.5%
Activity [4]: 100%

CC(C)(C)c1ccc(Nc2cc(Cl)cnc2C(=O)O)cc1
EC50 [1]: > 10 µM
Cell viability remaining [2]: 57%
growth inhibition (GI) [3]: 4.5%
Activity [4]: 98%

CC(C)(C)c1ccc(CNc2cc(N3CCOCC3)cnc2C(=O)O)cc1
EC50 [1]: 11.5 µM
Cell viability remaining [2]: 75%
growth inhibition (GI) [3]: 52.8%
Activity [4]: 85%

COc1ccc(CCNc2cc(Cl)cnc2C(=O)O)cc1
EC50 [1]: > 10 µM
Cell viability remaining [2]: 71%
growth inhibition (GI) [3]: 12.9%
Activity [4]: 95%

CC(C)(C)c1ccc(CNc2cc(Cl)cnc2C(N)=O)cc1
EC50 [1]: > 10 µM
Cell viability remaining [2]: 77%
growth inhibition (GI) [3]: 27.7%
Activity [4]: 100%

CC(C)(C)c1ccc(CNc2cc(Cl)c(-c3ccccc3)nc2C(=O)O)cc1
EC50 [1]: > 10 µM
Cell viability remaining [2]: 82%
growth inhibition (GI) [3]: 20.4%
Activity [4]: 100%

Cc1ccc(CNc2cc(Cl)cnc2C(=O)O)cc1
EC50 [1]: > 10 µM
Cell viability remaining [2]: 94%
growth inhibition (GI) [3]: 0%
Activity [4]: 100%

O=C(O)c1ncc(Cl)cc1NCCc1ccc(C(F)(F)F)cc1
EC50 [1]: > 10 µM
Cell viability remaining [2]: 57%
growth inhibition (GI) [3]: 44.8%
Activity [4]: 59%

NC(=O)N1c2ccccc2C=Cc2ccccc21 [CARBAMAZEPINE]
Papp at 18 h [9]: 6.63 ×10⁻⁶ cm/s

CC(C)(C)c1ccc(CNc2cc(Cl)c(Br)nc2C(=O)O)cc1
EC50 [1]: > 10 µM
Cell viability remaining [2]: 100%
growth inhibition (GI) [3]: 17.6%
Activity [4]: 100%

CC(C)(C)c1ccc(CNc2cncc(Cl)c2)cc1
EC50 [1]: > 10 µM
Cell viability remaining [2]: 88%
growth inhibition (GI) [3]: 17.6%
Activity [4]: 100%

CCCCCCCCCCCCCCCCOP(=O)([O-])OCC[N+](C)(C)C [MILTEFOSINE]
EC50 [1]: 35.7 µM

CC(C)(C)c1ccc(CNc2cc(Cl)cnc2C(=O)O)s1
EC50 [1]: > 10 µM
Cell viability remaining [2]: 90%
growth inhibition (GI) [3]: 0%
Activity [4]: 95%

CC(C)(C)c1ccc(CNc2cc(Cl)cnc2C#N)cc1
EC50 [1]: > 10 µM
Cell viability remaining [2]: 57%
growth inhibition (GI) [3]: 22.2%
Activity [4]: 96%

CC(C)(C)c1ccc(C(=O)Nc2cc(Cl)cnc2C(=O)[O-])cc1.[Na+]
Cell viability remaining [2]: 61%
EC50 ([3]; Naegleria fowleri, NF69 ATCC 30215, 48 h): > 10 µM

CC(C)(C)c1ccc(CC(=O)Nc2cc(Cl)cnc2C(=O)O)cc1
EC50 [1]: > 10 µM
Cell viability remaining [2]: 19%
growth inhibition (GI) [3]: 9.9%
Activity [4]: 76%

CC(C)(C)c1ccc(CNc2cc(Cl)ncc2C(=O)O)cc1
EC50 [1]: > 10 µM
